In patent US20190365626A1, “HIGHLY EFFECTIVE PHOTOPROTECTIVE AGENTS” (3V Sigma S.P.A., priority 2018, published 2019):

Experiments:
[1] = Solubility Test in emollients (cosmetic solvents); format: physicochemical
Experimental: The solubility of the sunscreens obtained in example 2 and (comparative) example 3 were evaluated in various emollients commonly used in suncare and daily skincare products: C12-15 alkyl benzoate, dibutyl adipate, caprylic/capric triglyceride and ethylhexyl salicylate.

[2] = specific extinction E^11 (1% solution, 1 cm optical path); format: physicochemical; conditions: at 328 nm; solution containing 1% of the product, optical path of 1 cm
Description: The efficacy of UV absorbers is characterised by the parameter E^11 (or E11), which corresponds to the extinction value measured at the maximum absorption wavelength of a solution containing 1% of the product in question, measured with an optical path of 1 cm. Such extinction is called “specific extinction”.

[3] = in Caprylic/Capric Triglyceride

solubility ([1]; in C12-15 Alkyl Benzoate) [% w/w %] | solubility [1, 3] [% w/w %] | solubility ([1]; in Dibutyl Adipate) [% w/w %] | solubility ([1]; in Ethylhexyl Salicylate) [% w/w %] | E^11 extinction [2] | Compound
15 | 15 | 20 | 25 | 1431 | CCCCC(CC)COC(=O)c1ccc(Nc2nc(Nc3ccc(-c4nc5cc(C(C)(C)CC)ccc5o4)cc3)nc(Nc3ccc(-c4nc5cc(C(C)(C)CC)ccc5o4)cc3)n2)cc1 (stereo not shown) [Example 2]
5 | <5 | 5 | 10 | 1395 | CCCCC(CC)COC(=O)c1ccc(Nc2nc(Nc3ccc(-c4nc5cc(C(C)(C)C)ccc5o4)cc3)nc(Nc3ccc(-c4nc5cc(C(C)(C)C)ccc5o4)cc3)n2)cc1 (stereo not shown) [Example 3]
